Measured values taken from PubChem BioAssay (NCI).
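Assay format: 96-well plates, 48-hour exposure. TGI: concentration producing complete growth inhibition.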

Tests used:
Assay in all cases: NCI tumour cell line growth inhibition, 48 h
786-0 renal = system: 786-0 renal
A498 renal = system: A498 renal
A549 NSCLC = system: A549 NSCLC
ACHN renal = system: ACHN renal
CAKI-1 renal = system: CAKI-1 renal
CCRF-CEM leukemia = system: CCRF-CEM leukemia
COLO 205 colon = system: COLO 205 colon
DU-145 prostate = system: DU-145 prostate
EKVX NSCLC = system: EKVX NSCLC
HCC-2998 colon = system: HCC-2998 colon
HCT-116 colon = system: HCT-116 colon
HCT-15 colon = system: HCT-15 colon
HL-60(TB) leukemia = system: HL-60(TB) leukemia
HOP-62 NSCLC = system: HOP-62 NSCLC
HOP-92 NSCLC = system: HOP-92 NSCLC
HS 578T breast = system: HS 578T breast
HT29 colon = system: HT29 colon
IGROV1 ovarian = system: IGROV1 ovarian
K-562 leukemia = system: K-562 leukemia
KM12 colon = system: KM12 colon
LOX IMVI melanoma = system: LOX IMVI melanoma
M14 melanoma = system: M14 melanoma
MALME-3M melanoma = system: MALME-3M melanoma
MCF7 breast = system: MCF7 breast
MDA-MB-231 breast = system: MDA-MB-231 breast
MDA-MB-435 = system: MDA-MB-435
MDA-N = system: MDA-N
MOLT-4 leukemia = system: MOLT-4 leukemia
NCI-H226 lung = system: NCI-H226 lung
NCI-H460 lung = system: NCI-H460 lung
NCI-H522 lung = system: NCI-H522 lung
NCI/ADR-RES ovarian = system: NCI/ADR-RES ovarian
OVCAR-3 ovarian = system: OVCAR-3 ovarian
OVCAR-4 ovarian = system: OVCAR-4 ovarian
OVCAR-5 ovarian = system: OVCAR-5 ovarian
OVCAR-8 ovarian = system: OVCAR-8 ovarian
RPMI-8226 leukemia = system: RPMI-8226 leukemia
RXF 393 renal = system: RXF 393 renal
SF-268 CNS = system: SF-268 CNS
SF-295 CNS = system: SF-295 CNS
SF-539 CNS = system: SF-539 CNS
SK-MEL-2 melanoma = system: SK-MEL-2 melanoma
SK-MEL-28 melanoma = system: SK-MEL-28 melanoma
SK-MEL-5 melanoma = system: SK-MEL-5 melanoma
SK-OV-3 ovarian = system: SK-OV-3 ovarian
SN12C renal = system: SN12C renal
SNB-75 CNS = system: SNB-75 CNS
SR leukemia = system: SR leukemia
SW-620 colon = system: SW-620 colon
T-47D breast = system: T-47D breast
TK-10 renal = system: TK-10 renal
UACC-257 melanoma = system: UACC-257 melanoma
UACC-62 melanoma = system: UACC-62 melanoma
NCI-H23 lung = system: NCI-H23 lung
PC-3 prostate = system: PC-3 prostate
U251 CNS = system: U251 CNS

**Q.** Which results are given for `CC[C@H](C)[C@H]1NC(=O)[C@@H](NC(=O)[C@@H](CC(C)C)N(C)C(=O)C2CCCN2C(=O)[C@H](C)O)[C@@H](C)OC(=O)[C@@H]2Cc3ccccc3CN2C(=O)[C@@H]2CCCN2C(=O)[C@H](CC(C)C)NC(=O)[C@@H](C)C(=O)[C@H](C(C)C)OC(=O)C[C@@H]1O` (some centres not stated)?
**A.** TGI (786-0 renal): 11.1 µM; TGI (A498 renal): 5.96 µM; TGI (A549 NSCLC): 21.3 µM; TGI (ACHN renal): 15.5 µM; TGI (CAKI-1 renal): > 50 µM; TGI (CCRF-CEM leukemia): 1.66 µM; TGI (COLO 205 colon): 2.61 µM; TGI (DU-145 prostate): 6.31 µM; TGI (EKVX NSCLC): > 55 µM; TGI (HCC-2998 colon): 3.26 µM; TGI (HCT-116 colon): 5.08 µM; TGI (HCT-15 colon): > 100 µM; TGI (HL-60(TB) leukemia): 0.433 µM; TGI (HOP-62 NSCLC): 12 µM; TGI (HOP-92 NSCLC): 28.8 µM; TGI (HS 578T breast): > 38.4 µM; TGI (HT29 colon): 10.7 µM; TGI (IGROV1 ovarian): > 73.7 µM; TGI (K-562 leukemia): > 41.2 µM; TGI (KM12 colon): 5.13 µM; TGI (LOX IMVI melanoma): 9.11 µM; TGI (M14 melanoma): 13.3 µM; TGI (MALME-3M melanoma): 5.16 µM; TGI (MCF7 breast): 12.8 µM; TGI (MDA-MB-231 breast): 10.3 µM; TGI (MDA-MB-435): 8.1 µM; TGI (MDA-N): 12.5 µM; TGI (MOLT-4 leukemia): 5 µM; TGI (NCI-H226 lung): 6.4 µM; TGI (NCI-H460 lung): 5.09 µM; TGI (NCI-H522 lung): > 49.3 µM; TGI (NCI/ADR-RES ovarian): > 100 µM; TGI (OVCAR-3 ovarian): 6.68 µM; TGI (OVCAR-4 ovarian): > 25 µM; TGI (OVCAR-5 ovarian): 12.7 µM; TGI (OVCAR-8 ovarian): > 54.8 µM; TGI (RPMI-8226 leukemia): 10.4 µM; TGI (RXF 393 renal): 6.48 µM; TGI (SF-268 CNS): 6.34 µM; TGI (SF-295 CNS): > 28.6 µM; TGI (SF-539 CNS): 8.42 µM; TGI (SK-MEL-2 melanoma): 1.55 µM; TGI (SK-MEL-28 melanoma): 23.1 µM; TGI (SK-MEL-5 melanoma): 2.86 µM; TGI (SK-OV-3 ovarian): > 42 µM; TGI (SN12C renal): 5.56 µM; TGI (SNB-75 CNS): 1.94 µM; TGI (SR leukemia): 1.08 µM; TGI (SW-620 colon): > 42.6 µM; TGI (T-47D breast): > 100 µM; TGI (TK-10 renal): > 70.1 µM; TGI (UACC-257 melanoma): 6.11 µM; TGI (UACC-62 melanoma): 4.47 µM

**Q.** Which TGI (A498 renal) does the source give for `COP(=O)(OC)/C(=C/c1cn(C(C)=O)c2ccccc12)NC(C)=O` here?
**A.** 94.3 µM

**Q.** What about the TGI (A549 NSCLC) of the same molecule?
**A.** > 100 µM

**Q.** And the TGI (ACHN renal)?
**A.** > 100 µM

**Q.** And the TGI (CAKI-1 renal)?
**A.** > 100 µM

**Q.** What about the TGI (CCRF-CEM leukemia) of the same molecule?
**A.** 58.3 µM

**Q.** What about the TGI (COLO 205 colon) of the same molecule?
**A.** > 100 µM

**Q.** What about the TGI (DU-145 prostate) of the same molecule?
**A.** > 100 µM

**Q.** And the TGI (HCT-116 colon)?
**A.** > 100 µM

**Q.** And the TGI (HCT-15 colon)?
**A.** 66.4 µM

**Q.** And the TGI (HL-60(TB) leukemia)?
**A.** 42.6 µM

**Q.** And the TGI (HOP-62 NSCLC)?
**A.** > 100 µM

**Q.** And the TGI (HS 578T breast)?
**A.** > 100 µM

**Q.** What about the TGI (HT29 colon) of the same molecule?
**A.** > 100 µM

**Q.** And the TGI (IGROV1 ovarian)?
**A.** > 100 µM

**Q.** And the TGI (K-562 leukemia)?
**A.** > 100 µM

**Q.** What about the TGI (LOX IMVI melanoma) of the same molecule?
**A.** 41.9 µM

**Q.** And the TGI (M14 melanoma)?
**A.** > 100 µM

**Q.** And the TGI (MCF7 breast)?
**A.** > 100 µM

**Q.** And the TGI (MDA-MB-231 breast)?
**A.** > 100 µM

**Q.** And the TGI (MDA-MB-435)?
**A.** > 100 µM

**Q.** And the TGI (MDA-N)?
**A.** 36.3 µM

**Q.** And the TGI (NCI-H23 lung)?
**A.** > 100 µM

**Q.** What about the TGI (NCI-H460 lung) of the same molecule?
**A.** > 100 µM

**Q.** And the TGI (NCI-H522 lung)?
**A.** > 100 µM

**Q.** And the TGI (NCI/ADR-RES ovarian)?
**A.** > 100 µM

**Q.** And the TGI (OVCAR-3 ovarian)?
**A.** 66.2 µM

**Q.** What about the TGI (OVCAR-4 ovarian) of the same molecule?
**A.** > 100 µM

**Q.** And the TGI (OVCAR-5 ovarian)?
**A.** > 100 µM

**Q.** And the TGI (OVCAR-8 ovarian)?
**A.** > 100 µM

**Q.** What about the TGI (PC-3 prostate) of the same molecule?
**A.** > 100 µM

**Q.** What about the TGI (RPMI-8226 leukemia) of the same molecule?
**A.** 45.3 µM

**Q.** What about the TGI (SF-295 CNS) of the same molecule?
**A.** > 100 µM

**Q.** What about the TGI (SK-MEL-2 melanoma) of the same molecule?
**A.** > 100 µM

**Q.** What about the TGI (SK-MEL-28 melanoma) of the same molecule?
**A.** > 100 µM

**Q.** What about the TGI (SK-MEL-5 melanoma) of the same molecule?
**A.** > 100 µM

**Q.** And the TGI (SK-OV-3 ovarian)?
**A.** > 100 µM

**Q.** And the TGI (SN12C renal)?
**A.** > 100 µM

**Q.** What about the TGI (SNB-75 CNS) of the same molecule?
**A.** > 100 µM

**Q.** And the TGI (SR leukemia)?
**A.** > 100 µM

**Q.** What about the TGI (SW-620 colon) of the same molecule?
**A.** > 100 µM

**Q.** What about the TGI (T-47D breast) of the same molecule?
**A.** > 100 µM

**Q.** And the TGI (TK-10 renal)?
**A.** > 100 µM

**Q.** What about the TGI (U251 CNS) of the same molecule?
**A.** > 100 µM

**Q.** What about the TGI (UACC-257 melanoma) of the same molecule?
**A.** > 100 µM
